Laboratory results taken from US20110263662A1, “1,2-DIAMIDO-ETHYLENE DERIVATIVES AS OREXIN ANTAGONISTS” (priority 2007, published 2011).

Tests used:
human orexin-1 receptor = target: T1, human orexin-1 receptor (Homo sapiens, UniProt O43613); experiment: FLIPR intracellular calcium assay, orexin receptor antagonistic activity (OX1); type: cell-based; details: CHO cells expressing human orexin-1 receptor, 3 nM orexin-A
T1 construct: expressed in transfected cells; host or cells: CHO (Chinese hamster ovary) cells, grown under G418 selection
T1 sequence (O43613 1-425): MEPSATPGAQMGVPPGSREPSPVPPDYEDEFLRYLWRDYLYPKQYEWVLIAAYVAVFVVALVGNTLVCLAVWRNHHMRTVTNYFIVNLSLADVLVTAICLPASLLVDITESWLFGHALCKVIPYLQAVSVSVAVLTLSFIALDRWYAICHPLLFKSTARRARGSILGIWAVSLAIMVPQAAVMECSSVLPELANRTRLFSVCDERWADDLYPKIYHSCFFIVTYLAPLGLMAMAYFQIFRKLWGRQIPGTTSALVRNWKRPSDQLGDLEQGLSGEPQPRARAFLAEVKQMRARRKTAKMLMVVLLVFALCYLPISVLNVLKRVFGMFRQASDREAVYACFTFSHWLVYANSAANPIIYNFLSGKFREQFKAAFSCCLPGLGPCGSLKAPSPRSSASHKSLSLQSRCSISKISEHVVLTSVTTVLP
Experimental: (§1) Chinese hamster ovary (CHO) cells expressing the human orexin-1 receptor and the human orexin-2 receptor, respectively, are grown in culture medium (Ham F-12 with L-Glutamine) containing 300 μg/ml G418, 100 U/ml penicillin, 100 μg/ml streptomycin and 10% heat inactivated fetal calf serum (FCS). The cells are seeded at 20′000 cells/well into 384-well black clear bottom sterile plates (Greiner). The seeded plates are incubated overnight at 37° C. in 5% CO2.
(§2) Human orexin-A as an agonist is prepared as 1 mM stock solution in MeOH:water (1:1), diluted in HBSS containing 0.1% bovine serum albumin (BSA), NaHCO3:0.375 g/l and 20 mM HEPES for use in the assay at a final concentration of 3 nM.
(§3) Antagonists are prepared as 10 mM stock solution in DMSO, then diluted in 384-well plates, first in DMSO, then in HBSS containing 0.1% bovine serum albumin (BSA), NaHCO3: 0.375 g/l and 20 mM HEPES.
(§4) On the day of the assay, 50 μl of staining buffer (HBSS containing 1% FCS, 20 mM HEPES, NaHCO3: 0.375 g/l, 5 mM probenecid (Sigma) and 3 μM of the fluorescent calcium indicator fluo-4 AM (1 mM stock solution in DMSO, containing 10% pluronic) is added to each well.
(§5) The 384-well cell-plates are incubated for 50 min at 37° C. in 5% CO2 followed by equilibration at RT for 30-120 min before measurement.
(§6) Within the Fluorescent Imaging Plate Reader (FLIPR2 or FLIPR Tetra, Molecular Devices), antagonists are added to the plate in a volume of 10 μl/well, incubated for 10 min and finally 10 μl/well of agonist is added. Fluorescence is measured for each well at 1 second intervals, and the height of each fluorescence peak is compared to the height of the fluorescence peak induced by 3 nM orexin-A with vehicle in place of antagonist. For each antagonist, the IC50 value (the concentration of compound needed to inhibit 50% of the agonistic response) is determined. Optimized conditions may be achieved by adjustment of pipetting speed and cell splitting regime. The calculated IC50 values of the compounds may fluctuate depending on the daily cellular assay performance. Fluctuations of this kind are known to those skilled in the art.

human orexin-2 receptor = target: T2, human orexin-2 receptor (Homo sapiens, UniProt O43614); experiment: FLIPR intracellular calcium assay, orexin receptor antagonistic activity (OX2); type: cell-based; details: CHO cells expressing human orexin-2 receptor, 3 nM orexin-A
T2 construct: expressed in transfected cells; host or cells: CHO (Chinese hamster ovary) cells, grown under G418 selection
T2 sequence (O43614 1-444): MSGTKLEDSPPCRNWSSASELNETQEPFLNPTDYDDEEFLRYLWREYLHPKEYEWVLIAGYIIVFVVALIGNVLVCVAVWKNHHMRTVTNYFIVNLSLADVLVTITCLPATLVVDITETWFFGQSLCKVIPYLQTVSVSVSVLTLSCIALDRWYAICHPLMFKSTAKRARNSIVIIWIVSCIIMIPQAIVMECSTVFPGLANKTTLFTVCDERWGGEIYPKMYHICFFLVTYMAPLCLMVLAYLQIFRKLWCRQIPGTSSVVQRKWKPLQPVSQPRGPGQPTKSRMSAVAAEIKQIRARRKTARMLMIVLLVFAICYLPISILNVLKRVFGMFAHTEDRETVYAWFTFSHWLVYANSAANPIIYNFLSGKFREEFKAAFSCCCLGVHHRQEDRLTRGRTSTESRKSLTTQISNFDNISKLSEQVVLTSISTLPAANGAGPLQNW
Experimental: as §1, §2, §3, §4, §5, §6

[1] = measured with FLIPR Tetra (marked *)
[2] = FLIPR 2, geometric mean from n = 2 values

| Compound | IC50 (human orexin-1 receptor; [1]) | IC50 (human orexin-2 receptor; [1]) | IC50 (human orexin-1 receptor; measured with FLIPR 2) | IC50 (human orexin-2 receptor; measured with FLIPR 2) | further results |
| --- | --- | --- | --- | --- | --- |
| Cc1ccc(-c2sc(Br)nc2C(=O)N(CCNC(=O)c2c(C)nc3sccn23)C2CC2)cc1 [Example 111, 6-Methyl-imidazo[2,1-b]thiazole-5-carboxylic acid {2-[(2-bromo-5-p-tolyl-thiazole-4-carbonyl)-cyclopropyl-amino]ethyl}-amide] | 39 nM | 23 nM | – | – | – |
| Cc1cccc(-c2ccccc2C(=O)N(CCNC(=O)c2nn(C)c3ccccc23)C2CC2)c1 [Example 144, 1-Methyl-1H-indazole-3-carboxylic acid {2-[cyclopropyl-(3′-methyl-biphenyl-2-carbonyl)-amino]-ethyl}-amide] | 95 nM | 20 nM | – | – | – |
| Cc1cccc(-c2sc(C3CC3)nc2C(=O)N(CCNC(=O)c2c(C)nc3sccn23)CC2CC2)c1 [Example 171, 6-Methyl-imidazo[2,1-b]thiazole-5-carboxylic acid {2-[cyclopropylmethyl-(2-cyclopropyl-5-m-tolyl-thiazole-4-carbonyl)-amino]-ethyl}-amide] | 16 nM | 12 nM | – | – | – |
| Cc1nc(C(=O)N(Cc2ccccc2)C(CNC(=O)c2c(C)nc3sccn23)Cc2ccccc2)c(-c2ccccc2)s1 (racemic) [Example 71, 6-Methyl-imidazo[2,1-b]thiazole-5-carboxylic acid {(RS)-2-[benzyl-(2-methyl-5-phenyl-thiazole-4-carbonyl)-amino]-3-phenyl-propyl}-amide] | – | – | 27 nM | 50 nM | – |
| Cc1nc(C(=O)N(CCNC(=O)c2c(C)nc3sccn23)CC2CC2)c(-c2cccc(C#N)c2)s1 [Example 187, 6-Methyl-imidazo[2,1-b]thiazole-5-carboxylic acid (2-{[5-(3-cyano-phenyl)-2-methyl-thiazole-4-carbonyl]-cyclopropylmethyl-amino}-ethyl)-amide] | 17 nM | 28 nM | – | – | – |
| Cc1nc(C(=O)N(C)CCNC(=O)c2cccc3occc23)c(-c2ccc(F)cc2)s1 [Example 3, 5-(4-Fluoro-phenyl)-2-methyl-thiazole-4-carboxylic acid {2-[(benzofuran-4-carbonyl)-amino]-ethyl}-methyl-amide] | – | – | – | – | IC50 (human orexin-1 receptor; [2]): 150 nM; IC50 (human orexin-2 receptor; [2]): 27 nM |
| Cc1cccc(-c2ccccc2C(=O)N(CCNC(=O)c2cccc3c2OCCO3)CC2CC2)c1 [Example 252, 2,3-Dihydro-benzo[1,4]dioxine-5-carboxylic acid {2-[cyclopropylmethyl-(3′-methyl-biphenyl-2-carbonyl)-amino]-ethyl}-amide] | 807 nM | 203 nM | – | – | – |
| COc1cccc(-c2sc(C)nc2C(=O)N(CCNC(=O)c2cccc3c2OCCO3)CC2CC2)c1 [Example 248, 5-(3-Methoxy-phenyl)-2-methyl-thiazole-4-carboxylic acid cyclopropylmethyl-{2-[(2,3-dihydro-benzo[1,4]dioxine-5-carbonyl)-amino]-ethyl}-amide] | 434 nM | 29 nM | – | – | – |
| Cc1nc(C(=O)N(CCNC(=O)c2cccc3occc23)Cc2ccccc2)c(-c2ccc(F)cc2)s1 [Example 2, 5-(4-Fluoro-phenyl)-2-methyl-thiazole-4-carboxylic acid {2-[(benzofuran-4-carbonyl)-amino]-ethyl}-benzyl-amide] | – | – | – | – | IC50 (human orexin-1 receptor; [2]): 242 nM; IC50 (human orexin-2 receptor; [2]): 35 nM |
| Cc1nc2sccn2c1C(=O)NCC(C)N(Cc1ccccc1)C(=O)c1ccccc1-c1ccccc1 (racemic) [Example 97, 6-Methyl-imidazo[2,1-b]thiazole-5-carboxylic acid {(RS)-2-[benzyl-(biphenyl-2-carbonyl)-amino]-propyl}-amide] | – | – | 5.7 nM | 5.8 nM | – |
| Nc1nc(C(=O)N(CCNC(=O)c2cccc3occc23)CC2CC2)c(-c2cccc(Cl)c2)s1 [Example 262, 2-Amino-5-(3-chloro-phenyl)-thiazole-4-carboxylic acid {2-[(benzofuran-4-carbonyl)-amino]-ethyl}-cyclopropylmethyl-amide] | 144 nM | 17 nM | – | – | – |
| Cc1nc(C(=O)N(CCNC(=O)c2c(C)nc3sccn23)Cc2ccc(F)cc2)c(-c2ccccc2)s1 [Example 18, 6-Methyl-imidazo[2,1-b]thiazole-5-carboxylic acid {2-[(4-fluoro-benzyl)-(2-methyl-5-phenyl-thiazole-4-carbonyl)-amino]-ethyl}-amide] | – | – | 7.8 nM | 11 nM | – |
| Cc1nc(C(=O)N(CCNC(=O)c2cccc3occc23)C2CC2)c(-c2ccc(C)c(C)c2)s1 [Example 165, 5-(3,4-Dimethyl-phenyl)-2-methyl-thiazole-4-carboxylic acid {2-[(benzofuran-4-carbonyl)-amino]-ethyl}-cyclopropyl-amide] | 2 nM | 4.3 nM | – | – | – |
| Cc1nc(C(=O)NC(CNC(=O)c2c(C)nc3sccn23)C2CC2)c(-c2ccccc2)s1 (racemic) [Example 49, 6-Methyl-imidazo[2,1-b]thiazole-5-carboxylic acid {(RS)-2-cyclopropyl-2-[(2-methyl-5-phenyl-thiazole-4-carbonyl)-amino]-ethyl}-amide] | – | – | 37 nM | 33 nM | – |
| Cc1nc2sccn2c1C(=O)NCC(C(C)C)N(Cc1ccccc1)C(=O)c1ccccc1-c1ccccc1 (racemic) [Example 99, 6-Methyl-imidazo[2,1-b]thiazole-5-carboxylic acid {(RS)-2-[benzyl-(biphenyl-2-carbonyl)-amino]-3-methyl-butyl}-amide] | – | – | 114 nM | 718 nM | – |
| Cc1nc2sccn2c1C(=O)NCC(CC(C)C)NC(=O)c1ccccc1-c1ccccc1 (racemic) [Example 88, 6-Methyl-imidazo[2,1-b]thiazole-5-carboxylic acid {(RS)-2-[(biphenyl-2-carbonyl)-amino]-4-methyl-pentyl}-amide] | – | – | 84 nM | 46 nM | – |
| Cc1nc(C(=O)NC(CNC(=O)c2cccc3occc23)CC(C)C)c(-c2ccccc2)s1 (racemic) [Example 83, 2-Methyl-5-phenyl-thiazole-4-carboxylic acid ((RS)-1-{[(benzofuran-4-carbonyl)-amino]-methyl}-3-methyl-butyl)-amide] | – | – | 437 nM | 303 nM | – |
| Nc1nc(C(=O)N(CCNC(=O)c2cccc3occc23)CC2CC2)c(-c2ccc(F)cc2)s1 [Example 261, 2-Amino-5-(4-fluoro-phenyl)-thiazole-4-carboxylic acid {2-[(benzofuran-4-carbonyl)-amino]-ethyl}-cyclopropylmethyl-amide] | 263 nM | 4.2 nM | – | – | – |
| COc1cccc(-c2sc(Br)nc2C(=O)N(CCNC(=O)c2c(C)nc3sccn23)CC2CC2)c1 [Example 179, 6-Methyl-imidazo[2,1-b]thiazole-5-carboxylic acid (2-{[2-bromo-5-(3-methoxy-phenyl)-thiazole-4-carbonyl]-cyclopropylmethyl-amino}-ethyl)-amide] | 10 nM | 10 nM | – | – | – |
